Data published in ChEMBL document CHEMBL4814074 (Bioorg Med Chem Lett, 2021).
pEC50: −log10 of the molar value.

What was measured:
hERG (KCNH2) = hERG (KCNH2) (Homo sapiens, UniProt Q12809); assay: Inhibition of human ERG at 3 uM relative to control
Vero = assay: (§1) Cytotoxicity against African green monkey Vero cells measured after 5 days; type: cell-based; details: chlorocebus sabaeus, vero, 120 h; time 5 day
Junin virus [1] = assay: Antiviral activity against pseudotyped Junin virus; type: functional, organism-based; details: Mammarenavirus juninense
Machupo mammarenavirus = assay: Antiviral activity against pseudotyped Machupo virus; type: functional, organism-based; details: Mammarenavirus machupoense
Lassa virus [2] = assay: Antiviral activity against pseudotyped Lassa mammarenavirus; type: functional, organism-based; details: Mammarenavirus lassaense
CYP2D6 = CYP2D6 (Homo sapiens, UniProt P10635); assay: Inhibition of CYP2D6 (unknown origin) at 20 uM; type: ADME
CYP3A4 = CYP3A4 (Homo sapiens, UniProt P08684); assay: Inhibition of CYP3A4 (unknown origin) at 20 uM; type: ADME
CYP2C9 = CYP2C9 (Homo sapiens, UniProt P11712); assay: Inhibition of CYP2C9 (unknown origin) at 20 uM; type: ADME
CYP2C19 = CYP2C19 (Homo sapiens, UniProt P33261); assay: Inhibition of CYP2C19 (unknown origin) at 20 uM; type: ADME
CYP1A2 = target: T1, CYP1A2 (Homo sapiens, UniProt P05177); assay: Inhibition of CYP1A2 (unknown origin) at 20 uM; type: ADME
T1 sequence (P05177 whole entry): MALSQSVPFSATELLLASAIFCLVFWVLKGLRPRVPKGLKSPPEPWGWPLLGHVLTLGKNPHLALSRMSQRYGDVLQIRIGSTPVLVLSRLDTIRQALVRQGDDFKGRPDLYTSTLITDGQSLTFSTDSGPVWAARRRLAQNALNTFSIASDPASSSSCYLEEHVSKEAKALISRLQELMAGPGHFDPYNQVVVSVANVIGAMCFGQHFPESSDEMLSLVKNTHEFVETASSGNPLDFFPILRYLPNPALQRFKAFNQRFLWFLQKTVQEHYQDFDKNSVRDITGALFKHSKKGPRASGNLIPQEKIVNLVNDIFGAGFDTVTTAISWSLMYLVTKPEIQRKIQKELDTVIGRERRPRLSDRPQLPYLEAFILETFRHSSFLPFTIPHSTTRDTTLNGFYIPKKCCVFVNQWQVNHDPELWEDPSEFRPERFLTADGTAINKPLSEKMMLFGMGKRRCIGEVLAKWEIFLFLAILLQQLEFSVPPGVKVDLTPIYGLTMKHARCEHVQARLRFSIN

[3] = as §1; type: cell-based; details: chlorocebus sabaeus, Vero cells; time 5 day
Lassa virus [4] = assay: Antiviral activity against Lassa virus by virus yield reduction assay; type: functional, organism-based; details: Mammarenavirus lassaense
Lassa virus [5] = assay: Antiviral activity against Lassa virus by plaque reduction assay; type: functional, organism-based; details: Mammarenavirus lassaense
Junin virus [6] = assay: Antiviral activity against Junin virus by virus yield reduction assay; type: functional, organism-based; details: Mammarenavirus juninense

Chain of CYP3A4 (P08684 whole entry): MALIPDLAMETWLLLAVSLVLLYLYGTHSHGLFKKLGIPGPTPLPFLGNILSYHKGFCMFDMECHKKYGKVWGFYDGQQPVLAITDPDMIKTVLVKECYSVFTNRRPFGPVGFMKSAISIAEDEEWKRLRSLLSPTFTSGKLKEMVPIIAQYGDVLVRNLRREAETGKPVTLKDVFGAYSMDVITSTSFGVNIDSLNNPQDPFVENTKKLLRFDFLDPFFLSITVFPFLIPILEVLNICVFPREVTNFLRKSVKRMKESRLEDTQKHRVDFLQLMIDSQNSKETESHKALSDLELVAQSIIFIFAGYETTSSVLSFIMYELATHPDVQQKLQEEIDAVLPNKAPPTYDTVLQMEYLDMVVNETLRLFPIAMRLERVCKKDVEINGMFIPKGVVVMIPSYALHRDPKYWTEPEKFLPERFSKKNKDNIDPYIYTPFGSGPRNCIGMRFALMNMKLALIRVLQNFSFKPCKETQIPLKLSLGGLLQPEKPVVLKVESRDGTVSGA
Chain of CYP2C19 (P33261 whole entry): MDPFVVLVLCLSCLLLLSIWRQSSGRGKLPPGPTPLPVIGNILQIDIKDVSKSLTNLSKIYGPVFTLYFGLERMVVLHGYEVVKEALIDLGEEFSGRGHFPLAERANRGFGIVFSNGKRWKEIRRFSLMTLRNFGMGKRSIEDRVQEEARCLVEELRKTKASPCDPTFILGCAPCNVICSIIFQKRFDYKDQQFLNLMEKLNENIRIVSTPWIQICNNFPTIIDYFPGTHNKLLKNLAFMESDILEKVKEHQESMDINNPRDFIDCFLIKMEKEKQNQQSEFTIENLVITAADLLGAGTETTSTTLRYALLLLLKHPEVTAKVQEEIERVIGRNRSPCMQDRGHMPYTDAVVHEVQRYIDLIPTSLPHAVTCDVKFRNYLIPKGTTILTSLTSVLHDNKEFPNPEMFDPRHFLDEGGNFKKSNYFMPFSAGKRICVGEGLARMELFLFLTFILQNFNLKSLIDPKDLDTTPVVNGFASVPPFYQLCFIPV
Chain of CYP2C9 (P11712 whole entry): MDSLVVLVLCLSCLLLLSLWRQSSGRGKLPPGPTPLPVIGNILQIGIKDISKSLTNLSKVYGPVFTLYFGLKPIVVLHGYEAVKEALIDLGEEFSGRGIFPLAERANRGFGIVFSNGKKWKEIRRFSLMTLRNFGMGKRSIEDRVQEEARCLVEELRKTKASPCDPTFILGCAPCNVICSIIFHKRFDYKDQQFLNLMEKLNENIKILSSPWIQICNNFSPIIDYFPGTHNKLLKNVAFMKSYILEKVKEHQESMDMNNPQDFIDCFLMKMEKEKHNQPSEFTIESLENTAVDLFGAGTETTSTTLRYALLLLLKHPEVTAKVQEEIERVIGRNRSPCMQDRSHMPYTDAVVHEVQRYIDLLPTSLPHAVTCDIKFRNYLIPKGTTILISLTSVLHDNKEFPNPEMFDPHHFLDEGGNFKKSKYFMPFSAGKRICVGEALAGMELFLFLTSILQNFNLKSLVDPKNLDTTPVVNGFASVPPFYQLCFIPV
Chain of hERG (KCNH2) (Q12809 whole entry): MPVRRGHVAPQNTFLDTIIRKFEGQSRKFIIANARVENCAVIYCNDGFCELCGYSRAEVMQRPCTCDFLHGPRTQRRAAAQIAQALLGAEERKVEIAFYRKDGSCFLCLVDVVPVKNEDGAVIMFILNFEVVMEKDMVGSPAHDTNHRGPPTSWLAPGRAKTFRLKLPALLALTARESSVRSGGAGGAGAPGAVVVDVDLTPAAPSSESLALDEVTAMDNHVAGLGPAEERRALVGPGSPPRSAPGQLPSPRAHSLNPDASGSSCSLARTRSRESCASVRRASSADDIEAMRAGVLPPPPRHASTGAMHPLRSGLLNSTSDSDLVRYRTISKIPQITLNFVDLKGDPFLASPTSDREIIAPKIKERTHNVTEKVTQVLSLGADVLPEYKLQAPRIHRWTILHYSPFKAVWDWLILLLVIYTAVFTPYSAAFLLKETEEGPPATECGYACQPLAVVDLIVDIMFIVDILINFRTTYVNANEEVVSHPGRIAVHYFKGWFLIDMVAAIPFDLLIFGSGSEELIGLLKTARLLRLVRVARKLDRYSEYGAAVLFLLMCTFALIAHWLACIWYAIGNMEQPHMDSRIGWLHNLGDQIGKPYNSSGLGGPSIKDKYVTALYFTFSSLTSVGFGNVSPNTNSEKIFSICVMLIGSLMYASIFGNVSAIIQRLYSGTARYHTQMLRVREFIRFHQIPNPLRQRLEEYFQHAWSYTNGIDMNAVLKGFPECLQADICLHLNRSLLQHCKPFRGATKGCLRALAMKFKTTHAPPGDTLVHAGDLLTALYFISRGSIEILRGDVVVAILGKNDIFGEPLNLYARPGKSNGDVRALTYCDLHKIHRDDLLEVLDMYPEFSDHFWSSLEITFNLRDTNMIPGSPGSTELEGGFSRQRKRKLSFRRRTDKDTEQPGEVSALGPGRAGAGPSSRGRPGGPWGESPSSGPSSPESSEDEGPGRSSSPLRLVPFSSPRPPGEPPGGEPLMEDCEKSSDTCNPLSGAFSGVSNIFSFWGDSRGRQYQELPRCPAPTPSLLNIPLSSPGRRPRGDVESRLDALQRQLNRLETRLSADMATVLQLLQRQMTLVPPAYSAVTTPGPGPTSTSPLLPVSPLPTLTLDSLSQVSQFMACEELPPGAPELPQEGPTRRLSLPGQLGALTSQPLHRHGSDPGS
Chain of CYP2D6 (P10635 whole entry): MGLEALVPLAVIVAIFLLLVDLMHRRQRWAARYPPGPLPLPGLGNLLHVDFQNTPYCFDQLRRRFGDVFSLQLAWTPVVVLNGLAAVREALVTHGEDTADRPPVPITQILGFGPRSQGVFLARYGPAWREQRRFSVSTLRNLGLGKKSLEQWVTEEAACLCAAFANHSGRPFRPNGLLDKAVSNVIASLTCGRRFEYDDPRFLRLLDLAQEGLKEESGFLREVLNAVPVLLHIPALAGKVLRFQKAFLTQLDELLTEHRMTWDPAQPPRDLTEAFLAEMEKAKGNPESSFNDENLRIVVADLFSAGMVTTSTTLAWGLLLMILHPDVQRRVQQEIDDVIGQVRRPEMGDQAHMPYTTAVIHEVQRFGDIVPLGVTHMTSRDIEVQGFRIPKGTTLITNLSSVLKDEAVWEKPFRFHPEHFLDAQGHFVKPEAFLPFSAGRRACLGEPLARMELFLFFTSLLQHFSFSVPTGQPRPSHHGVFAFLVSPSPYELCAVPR

Structure (SMILES)	inhibition at 3 µM (hERG (KCNH2))	pEC50 (Junin virus [1])	pEC50 (Machupo mammarenavirus)	pEC50 (Lassa virus [2])	also measured
CC(C)Oc1ccc(-c2ccc3ncc(-c4ccc(OC(C)(C)C)cc4)n3c2)cc1	48%	–	–	–	–
Cc1c(-c2ccc(OC(C)C)cc2)ccc2ncc(-c3ccc(OC(C)C)cc3)n12	–	9.77	9.80	9.49	CC50 (Vero): 4190 nM
CC(C)Oc1ccc(-c2ccc3cnn(-c4ccc(OC(C)C)cc4)c3c2)cc1	–	7.85	< 7.60	< 7.60	–
CC(C)Oc1ccc(-c2cnc3ccc(-c4ccc(OC(C)C)cc4F)cn23)cc1	–	< 7.60	< 7.60	< 7.60	–
CC(C)Oc1ccc(-c2ccc3nnc(-c4ccc(OC(C)C)cc4)n3c2)cc1	57%	–	–	–	–
CC(C)Oc1ccc(-c2ccc3ncn(-c4ccc(OC(C)C)cc4)c3c2)cc1	30%	–	–	–	–
CC(C)Oc1ccc(-c2cnc3ccc(-c4ccc(OCCN5CCOCC5)cc4)cn23)cc1	–	< 7.60	< 7.60	< 7.60	–
Cc1cc2ncc(-c3ccc(OC(C)C)cc3)n2cc1-c1ccc(OC(C)C)cc1	14%	–	–	–	inhibition at 20 µM (CYP2D6): < 21%; inhibition at 20 µM (CYP3A4): < 21%; inhibition at 20 µM (CYP2C9): < 21%; inhibition at 20 µM (CYP2C19): < 21%; inhibition at 20 µM (CYP1A2): < 21%
CC(C)Oc1ccc(-c2ccc3ncn(-c4ccc(OC(C)C)cc4)c3n2)cc1	< 10%	–	–	–	–
CC(C)Oc1ccc(-c2ccn3cnc(-c4ccc(OC(C)C)cc4)c3c2)cc1	–	7.66	< 7.60	7.68	CC50 at 120 h [3]: 7540 nM
Cc1cc2ncn(-c3ccc(OC(C)C)cc3)c2cc1-c1ccc(OC(C)C)cc1	< 10%	9.96	9.77	9.19	inhibition at 20 µM (CYP2D6): < 21%; pEC50 (Lassa virus [4]): 8.92; EC90 (Lassa virus [4]): 2.1 nM; inhibition at 20 µM (CYP3A4): 44%; inhibition at 20 µM (CYP2C9): < 21%; pEC50 (Lassa virus [5]): > 8.48; EC90 (Lassa virus [5]): < 4.2 nM; inhibition at 20 µM (CYP2C19): < 21%; inhibition at 20 µM (CYP1A2): < 21%
Cc1cc2nnn(-c3ccc(OC(C)C)cc3)c2cc1-c1ccc(OC(C)C)cc1	< 10%	9.68	9.28	8.98	pEC50 (Junin virus [6]): > 9.00; EC90 (Junin virus [6]): 2.4 nM
Cc1cc2ncn(-c3ccc(OC(C)(C)C)cc3)c2cc1-c1ccc(OC(C)(C)O)cc1	< 10%	9.00	9.92	8.40	inhibition at 20 µM (CYP2D6): < 21%; pEC50 (Lassa virus [4]): > 9.52; EC90 (Lassa virus [4]): < 0.3 nM; pEC50 (Junin virus [6]): 9.05; EC90 (Junin virus [6]): 6.2 nM; inhibition at 20 µM (CYP3A4): < 21%; inhibition at 20 µM (CYP2C9): < 21%; pEC50 (Lassa virus [5]): > 8.48; EC90 (Lassa virus [5]): < 3.3 nM; inhibition at 20 µM (CYP2C19): < 21%; inhibition at 20 µM (CYP1A2): < 21%
CC(C)Oc1ccc(-c2ccc3nnn(-c4ccc(OC(C)C)cc4)c3c2)cc1	17%	–	–	–	–
CC(C)Oc1ccc(-c2cnc3ncc(-c4ccc(OC(C)C)cc4)n3c2)cc1	37%	–	–	–	–
Cc1cc2ncc(-c3ccc(OC(C)(C)C)cc3)n2cc1-c1ccc(OC(C)C)cc1	< 10%	9.52	9.77	9.17	inhibition at 20 µM (CYP2D6): < 21%; pEC50 (Lassa virus [4]): > 9.52; EC90 (Lassa virus [4]): 0.87 nM; pEC50 (Junin virus [6]): 9.22; EC90 (Junin virus [6]): 1.2 nM; inhibition at 20 µM (CYP3A4): < 21%; inhibition at 20 µM (CYP2C9): < 21%; pEC50 (Lassa virus [5]): > 8.48; EC90 (Lassa virus [5]): < 3.3 nM; inhibition at 20 µM (CYP2C19): < 21%; inhibition at 20 µM (CYP1A2): < 21%
CC(C)Oc1ccc(-c2ccc3ncc(-c4ccc(OC(C)C)cc4)n3c2)cc1	89%	–	–	–	–
CC(C)Oc1ccc(-c2ccc3cnc(-c4ccc(OC(C)C)cc4)n3c2)cc1	–	< 7.60	< 7.60	< 7.60	–
CC(C)Oc1ccc(-c2cnc3ccc(-c4ccc(C(N)=O)cc4)cn23)cc1	–	< 7.60	< 7.60	< 7.60	–
CC(C)Oc1ccc(-c2ccc3ccn(-c4ccc(OC(C)C)cc4)c3c2)cc1	–	9.05	7.69	< 7.60	–
